US9658218B2, “Determination of total analyte concentration” (Siemens Healthcare Diagnostics Inc., priority 2012, dated 2017)

How the values were obtained:
[1] = ACMIA assay for tacrolimus on unknown samples known to contain endogeneous interfering substances
[2] = as above; details: for Estimated True: [Y]+[Z]; for Free drug: [Z]=0.218[Y]+0.0981
Procedure: Testing is carried out using the DIMENSION® RxL analyzer, available from Siemens Healthcare Diagnostics Inc., Newark Del. The instrument is employed using ACMIA immunoassay technology. The ACMIA assay method is described in U.S. Pat. Nos. 7,186,518, 5,147,529, 5,128,103, 5,158,871, 4,661,408, 5,151,348, 5,302,532, 5,422,284, 5,447,870, and 5,434,051, the disclosures of which are incorporated herein in their entirety. In the embodiment of the ACMIA method used herein and discussed in more detail below, competition between tacrolimus analog on chrome particles and tacrolimus in patient samples for antibody for tacrolimus conjugated to an enzyme (the “conjugate”) is utilized to determine the amount of tacrolimus in patient samples. Conjugate that binds to the tacrolimus analog on chrome particles is removed by magnetic separation. The enzymatic activity from conjugate remaining in the supernatant is measured and is directly proportional to the amount of tacrolimus in the patient sample. In the ACMIA assay format employed, the enzymatic activity observed when testing a sample containing no tacrolimus is indicative of the amount of enzymatic activity that is not bound to active antibody (i.e., cannot bind tacrolimus on chrome particles). The enzymatic activity observed when no chrome particle is present is indicative of the total amount of enzymatic activity in the conjugate. These values can be used to estimate the percent of enzymatic activity bound to active antibody. The ACMIA assay for tacrolimus is as follows: 15 μL of a whole blood samples I-V from above (substantially free from endogeneous interfering substances and spiked with tacrolimus) is mixed with the SIRO displacement solution (Table 1) in a vessel on the DIMENSION® RxL analyzer. The whole blood is sampled from a standard cup by first mixing the blood with the ultrasonic sample probe. The mixing of whole blood sample with the SIRO displacement solution ensures the displacement of the bound tacrolimus molecules from their binding sites when the SIRO molecules are present. As a result, the signal generated from this assay is related to the amount of free tacrolimus analyte plus the amount of displaced tacrolimus analyte (bound analyte) in the sample. Anti-tacrolimus antibody-β-galactosidase conjugate (50 μL) is added next to each of the reaction vessels and the mixture is held for a period of time (10 to 15 minutes) and at a temperature of 43° C. to allow tacrolimus, if present, to react with the antibody reagent. Chrome particles with immobilized tacrolimus-CM0-DA10-Dexal are added (50 μL) to each of the reaction vessels and are allowed to bind un-bound conjugate. […] The tacrolimus-bound conjugate is detected by transferring the supernatant from each of the reaction vessels to a photometric cuvette and measuring the enzymatic rate of the conjugate in the presence of chlorophenol red-β-D-galactopyranoside (CPRG). The rate for each reaction vessel is measured bichromatically at 577 and 700 nm. The above ACMIA assay is then carried out on unknown samples known to contain endogeneous interfering substances. Samples are obtained from various hospitals and are identified as set forth in first column of Table 3 below. The concentration of bound tacrolimus [Y] is determined as described above. The equation [Z]=0.218[Y]+0.0981 with the values for “a” and “b” determined as discussed above for this ACMIA assay is used to determine a concentration of free tacrolimus [Z] in the samples. The estimated true total concentration of tacrolimus [X] in each sample is determined by adding [Y]+[Z].

[3] = tested on: endogeneous binding proteins; assay: ACMIA assay for tacrolimus on spiked whole blood samples with and without SIRO displacing agent (free vs bound tacrolimus); type: in vitro ADME; details: without SIRO
[4] = tested on: endogeneous binding proteins; assay: as above; type: in vitro ADME; details: for Protein-Bound: +SIRO minus −SIRO; for +SIRO ng/mL (free plus bound tacrolimus): with SIRO displacer
Procedure: Testing is carried out using the DIMENSION® RxL analyzer, available from Siemens Healthcare Diagnostics Inc., Newark Del. The instrument is employed using ACMIA immunoassay technology. The ACMIA assay method is described in U.S. Pat. Nos. 7,186,518, 5,147,529, 5,128,103, 5,158,871, 4,661,408, 5,151,348, 5,302,532, 5,422,284, 5,447,870, and 5,434,051, the disclosures of which are incorporated herein in their entirety. In the embodiment of the ACMIA method used herein and discussed in more detail below, competition between tacrolimus analog on chrome particles and tacrolimus in patient samples for antibody for tacrolimus conjugated to an enzyme (the “conjugate”) is utilized to determine the amount of tacrolimus in patient samples. Conjugate that binds to the tacrolimus analog on chrome particles is removed by magnetic separation. The enzymatic activity from conjugate remaining in the supernatant is measured and is directly proportional to the amount of tacrolimus in the patient sample. In the ACMIA assay format employed, the enzymatic activity observed when testing a sample containing no tacrolimus is indicative of the amount of enzymatic activity that is not bound to active antibody (i.e., cannot bind tacrolimus on chrome particles). The enzymatic activity observed when no chrome particle is present is indicative of the total amount of enzymatic activity in the conjugate. These values can be used to estimate the percent of enzymatic activity bound to active antibody.
Tacrolimus-free whole blood pools are screened by running the above mentioned ACMIA assay to identify whole blood pools that are substantially free from endogenous interfering substances. The screening is carried out by examining the consistency of tacrolimus recoveries of the pools to the individual tacrolimus-free whole blood samples. If the recoveries of the majority of the tacrolimus-free whole blood samples are within the low end sensitivity of the assay when the pool is used as the tacrolimus-free calibrator, the pool is accepted as a matrix free from endogenous interfering substances. The pool is then used to make the tacrolimus calibrators (or standards) by spiking different amounts of pure tacrolimus into the pool. The calibrators (which are substantially free from endogenous interfering substances) are then employed to generated the relationship of [Z]=a[Y]+b during the method calibration, which is achieved by testing the calibrators in the presence and absence of a displacing agent (sirolimus). Both [Z] and [Y] are generated from the calibration. The [Z] values of the calibrators are generated by running the calibrators in the absence of the displacing agent (representing the free drug) and the [Y] values of the calibrators are generated by subtracting the [Z] value from the total drug measured in the presence of the displacing agent (representing the bound drug). Calibrators made from a whole blood pool that is substantially free from endogeneous interfering substances are selected for use in the experiments below.
The whole blood pool substantially free from endogeneous interfering substances identified above is used. Aliquots (100 mL) of the whole blood pool are spiked with various amounts of tacrolimus so that the resulting concentration of tacrolimus in the whole blood samples is 0, 2.8, 6.0, 11.9 and 31.3 ng/mL (samples I-V).
A set of samples I-V is treated as follows: To each sample is added a sirolimus (SIRO) displacing agent for displacing tacrolimus in the sample from endogeneous binding proteins. The formulation for the SIRO displacement solution is set forth in more detail in Table 1.
The samples are incubated at 37° C. for a period of 140 minutes in the presence of displacing agent to displace tacrolimus from endogeneous binding substances. […]

C=CC[C@@H]1/C=C(\C)C[C@H](C)C[C@H](OC)[C@H]2O[C@@](O)(C(=O)C(=O)N3CCCC[C@H]3C(=O)O[C@H](/C(C)=C/[C@@H]3CC[C@@H](O)[C@H](OC)C3)[C@H](C)[C@@H](O)CC1=O)[C@H](C)C[C@@H]2OC [tacrolimus]
ng/mL − displacer ([1]; sample 864408): 25.4 ng/mL | ng/mL − displacer ([1]; sample Dussel): 12.2 ng/mL | ng/mL − displacer ([1]; sample FP15): 3.8 ng/mL | Bound drug ([2]; sample 09-238-057): 0.0 ng/mL | ng/mL + displacer ([2]; sample 09-238-057): 32.7 ng/mL | ng/mL − displacer ([2]; sample 09-238-057): 36.1 ng/mL | Estimated True ([2]; sample 09-238-057): 0.0 ng/mL | Free drug ([2]; sample 09-238-057): 0.0 ng/mL | Bound drug ([2]; sample 109): 0.0 ng/mL | ng/mL + displacer ([2]; sample 109): 16.4 ng/mL | ng/mL − displacer ([2]; sample 109): 21.3 ng/mL | Estimated True ([2]; sample 109): 0.0 ng/mL | Free drug ([2]; sample 109): 0.0 ng/mL | Bound drug ([2]; sample 864408): 2.3 ng/mL | ng/mL + displacer ([2]; sample 864408): 27.7 ng/mL | Estimated True ([2]; sample 864408): 2.9 ng/mL | Free drug ([2]; sample 864408): 0.6 ng/mL | Bound drug ([2]; sample Dussel): 2.3 ng/mL | ng/mL + displacer ([2]; sample Dussel): 14.4 ng/mL | Estimated True ([2]; sample Dussel): 2.9 ng/mL | Free drug ([2]; sample Dussel): 0.6 ng/mL | Bound drug ([2]; sample FP15): 7.1 ng/mL | ng/mL + displacer ([2]; sample FP15): 10.9 ng/mL | Estimated True ([2]; sample FP15): 8.7 ng/mL | Free drug ([2]; sample FP15): 1.6 ng/mL | −SIRO ng/mL (free tacrolimus) ([3]; BV 2.8 ng/mL): 0.7 ng/mL | −SIRO ng/mL (free tacrolimus) ([3]; BV 6.0 ng/mL): 1.2 ng/mL | −SIRO ng/mL (free tacrolimus) ([3]; BV 11.9 ng/mL): 2.2 ng/mL | −SIRO ng/mL (free tacrolimus) ([3]; BV 31.3 ng/mL): 5.7 ng/mL | Protein-Bound ([4]; BV 2.8 ng/mL): 2.1 ng/mL | +SIRO ng/mL (free plus bound tacrolimus) ([4]; BV 2.8 ng/mL): 2.8 ng/mL | Protein-Bound ([4]; BV 6.0 ng/mL): 4.9 ng/mL | +SIRO ng/mL (free plus bound tacrolimus) ([4]; BV 6.0 ng/mL): 6.0 ng/mL | Protein-Bound ([4]; BV 11.9 ng/mL): 9.7 ng/mL | +SIRO ng/mL (free plus bound tacrolimus) ([4]; BV 11.9 ng/mL): 11.9 ng/mL | Protein-Bound ([4]; BV 31.3 ng/mL): 25.6 ng/mL | +SIRO ng/mL (free plus bound tacrolimus) ([4]; BV 31.3 ng/mL): 31.3 ng/mL
